Test [1] has as its target T1, noradrenaline reuptake sites (Rattus norvegicus, UniProt Q63380).
T1 construct: The membranes are prepared from the frontal cortex of the rat; from tissue; host or cells: rat frontal cortex membranes
Put plainly: Affinity for noradrenaline reuptake sites in the rat, competition with [3H]-nisoxetine on frontal cortex membranes. Format: binding. To be noted: 2 nM [3H]-nisoxetine, 4 hours at 4° C, pH 7.4. The procedure:
Determination of the Affinity For Noradrenaline Reuptake Sites in the Rat
The affinity was determined by competition experiments with [^3 H]-nisoxetine. The membranes are prepared from the frontal cortex of the rat and are incubated in triplicate with 2 nM [^3 H]-nisoxetine and the product to be tested in a final volume of 0.5 ml, for 4 hours at 4° C. The incubation buffer contains 50 mM TRIS-HCl (pH 7.4), 120 mM NaCl and 5 mM KCl. The non-specific binding is determined using 10 μM desipramine.
(§1) At the end of incubation, the incubation medium is filtered through WHATMAN GF/B filters impregnated with 0.1% of polyethyleneimine, and washed three times with 5 ml of cooled buffer. The radioactivity retained on the filters is determined by liquid scintillation counting. The binding isotherms are analysed by non-linear regression.

The next test concerns the target T2, α2-adrenergic receptors (Rattus norvegicus, UniProt P22909).
T2 construct: The membranes are prepared from the cerebral cortex of the rat; from tissue; host or cells: rat cerebral cortex membranes
T2 sequence (P22909 1-465): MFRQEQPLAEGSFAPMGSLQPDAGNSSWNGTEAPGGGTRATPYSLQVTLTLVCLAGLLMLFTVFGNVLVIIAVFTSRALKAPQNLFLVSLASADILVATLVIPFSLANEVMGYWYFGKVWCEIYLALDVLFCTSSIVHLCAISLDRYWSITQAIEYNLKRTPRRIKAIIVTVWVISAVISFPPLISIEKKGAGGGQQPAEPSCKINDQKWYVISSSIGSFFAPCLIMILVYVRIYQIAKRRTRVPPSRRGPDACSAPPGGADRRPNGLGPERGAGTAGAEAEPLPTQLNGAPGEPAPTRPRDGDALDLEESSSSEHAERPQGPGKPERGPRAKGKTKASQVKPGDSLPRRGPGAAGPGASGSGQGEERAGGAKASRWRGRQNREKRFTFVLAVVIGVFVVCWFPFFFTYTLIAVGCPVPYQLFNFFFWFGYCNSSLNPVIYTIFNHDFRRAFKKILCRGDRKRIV
Nature of the test: Affinity for α2-adrenergic receptors in the rat, competition with [3H]-RX 821,002 on cerebral cortex membranes. To be noted: 0.4 nM [3H]-RX 821,002, 60 minutes at 22° C, pH 7.5. Format: binding. As for the experimental part: Determination of the Affinity For α2 -Adrenergic Receptors in the Rat
The affinity was determined by competition experiments with [^3 H]-RX 821,002. The membranes are prepared from the cerebral cortex of the rat and are incubated in triplicate with 0.4 nM [^3 H]-RX 821,002 and the product to be tested in a final volume of 1.0 ml, for 60 minutes at 22° C. The incubation buffer contains […] TRIS-HCl (pH 7.5), 1 mM EDTA and 100 μM GppNHp. The non-specific binding is determined using 10 μM phentolamine.
as §1

For a further test, the target named is T3, serotonin reuptake sites (Rattus norvegicus, UniProt P31652).
T3 construct: The membranes are prepared from the frontal cortex of the rat; from tissue; host or cells: rat frontal cortex membranes
Nature of the test: Affinity for serotonin reuptake sites in the rat, competition with [3H]-paroxetine on frontal cortex membranes. Format: binding. The conditions noted are these: 0.25 nM [3H]-paroxetine, 2 hours at 25° C, pH 7.4. As for the experimental part: Determination of the Affinity For Serotonin Reuptake Sites in the Rat
The affinity was determined by competition experiments with [^3 H]-paroxetine. The membranes are prepared from the frontal cortex of the rat and are incubated in triplicate with 0.25 nM [^3 H]-paroxetine and the cold ligand in a final volume of 0.4 ml, for 2 hours at 25° C. The incubation buffer contains 50 mM TRIS-HCl (pH 7.4), 120 mM NaCl and 5 mM KCl. The non-specific binding is determined using 10 μM citalopram.
as §1

A further test concerns monoamine reuptake. To be noted: described in U.S. Pat. No. 5,017,584; cited from earlier work.
For a further test, the system named is α2-adrenergic. The conditions noted are these: described in U.S. Pat. No. 5,017,584; cited from earlier work.

Each structure is given as a SMILES string.

By Ki is commonly meant a dissociation constant, usually derived from enzyme kinetics or from competition with a known ligand. Higher therefore signals lower affinity.

T1 sequence (Q63380 1-617): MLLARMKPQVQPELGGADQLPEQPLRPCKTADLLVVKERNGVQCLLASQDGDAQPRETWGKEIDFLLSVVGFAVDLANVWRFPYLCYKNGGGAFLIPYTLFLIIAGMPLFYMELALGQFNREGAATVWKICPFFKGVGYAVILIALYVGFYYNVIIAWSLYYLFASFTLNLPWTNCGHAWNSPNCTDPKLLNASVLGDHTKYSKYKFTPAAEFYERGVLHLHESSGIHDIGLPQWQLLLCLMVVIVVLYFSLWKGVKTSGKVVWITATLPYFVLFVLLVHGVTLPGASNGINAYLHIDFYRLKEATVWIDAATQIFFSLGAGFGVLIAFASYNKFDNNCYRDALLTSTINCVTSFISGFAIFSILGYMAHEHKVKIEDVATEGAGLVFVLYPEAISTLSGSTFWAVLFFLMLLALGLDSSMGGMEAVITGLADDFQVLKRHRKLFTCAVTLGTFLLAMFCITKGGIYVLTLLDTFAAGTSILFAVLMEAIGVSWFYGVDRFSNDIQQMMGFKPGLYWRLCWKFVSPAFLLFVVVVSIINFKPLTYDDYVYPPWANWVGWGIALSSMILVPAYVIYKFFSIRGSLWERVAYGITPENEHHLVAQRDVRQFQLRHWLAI
T3 sequence (P31652 whole entry): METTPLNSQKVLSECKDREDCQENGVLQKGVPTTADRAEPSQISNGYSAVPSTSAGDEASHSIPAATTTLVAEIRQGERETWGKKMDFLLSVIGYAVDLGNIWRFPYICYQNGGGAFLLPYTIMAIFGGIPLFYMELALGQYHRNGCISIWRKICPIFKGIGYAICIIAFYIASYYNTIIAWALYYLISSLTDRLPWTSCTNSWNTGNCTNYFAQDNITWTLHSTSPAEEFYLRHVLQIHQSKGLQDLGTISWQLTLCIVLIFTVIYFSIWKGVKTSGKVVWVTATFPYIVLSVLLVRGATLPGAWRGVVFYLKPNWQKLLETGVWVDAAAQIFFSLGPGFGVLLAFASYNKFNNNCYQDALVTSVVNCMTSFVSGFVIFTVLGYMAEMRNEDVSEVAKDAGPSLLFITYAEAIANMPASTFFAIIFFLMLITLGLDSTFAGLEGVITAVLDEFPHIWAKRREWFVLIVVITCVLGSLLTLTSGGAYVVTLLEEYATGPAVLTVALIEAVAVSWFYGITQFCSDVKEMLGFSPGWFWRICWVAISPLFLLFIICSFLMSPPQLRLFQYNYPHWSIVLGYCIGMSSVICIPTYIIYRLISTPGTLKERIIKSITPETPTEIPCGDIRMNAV

With `C1=NC[C@@]2(CC[C@@H]3Cc4ccccc4C[C@H]3C2)N1` (relative stereo) [Example 1, Spiro[(1,3-diazacyclopent-1-ene)-5: 2'(S)-(trans-1',2',3',4',4'a(R),9',9'a(S),10'-octahydroanthracene)]fumarate and spiro [(1,3-diazacyclopent-1-ene)-5: 2'(R)-(trans-1',2',3',4',4'a(S),9',9'a(R),10'-octahydroanthracene)]fumarate], the inhibitory constant (Ki) in test [1] is 200 nM; at α2-adrenergic receptors it was 10 nM; at serotonin reuptake sites, 15.8 nM.
Regarding `C1=C(CC2=NCCN2)CCc2ccccc21` [napamezole], in the test on monoamine reuptake, the “monoamine reuptake-blocking activity (in words)” value is on record as “monoamine reuptake-blocking activity”. Also, the “α2-adrenergic antagonist activity (in words)” value with α2-adrenergic is listed as “α2-adrenergic antagonist activity”.

The values are drawn from patent US6172097A, “Spiro imidazoline compounds” (Adir et Compagnie, priority 1998, dated 2001).
